{"source": "ChEMBL document CHEMBL2390914", "about": "“Discovery and SAR of PF-4693627, a potent, selective and orally bioavailable mPGES-1 inhibitor for the potential treatment of inflammation” (Bioorg Med Chem Lett, 2013)", "key": {"[1]": {"experiment": "Plasma concentration in Duncan Hartley guinea pig at 10 mg/kg, po", "format": "ADME, organism-based, Cavia porcellus", "parameters": "dose 10 mg/kg, route oral", "settings": "in vivo"}, "[2]": {"experiment": "Oral bioavailability in Sprague-Dawley rat at 1 mg/kg", "format": "ADME, organism-based", "settings": "in vivo"}, "[3]": {"experiment": "Mean residence time in Sprague-Dawley rat at 1 mg/kg, po", "format": "ADME, organism-based", "parameters": "dose 1 mg/kg, route oral", "settings": "in vivo"}, "[4]": {"experiment": "Volume of distribution at steady state in Sprague-Dawley rat at 1 mg/kg, iv", "format": "ADME, organism-based", "parameters": "dose 1 mg/kg, route intravenous", "settings": "in vivo, read-out: Vdss"}}}
{"smiles": "O=C(N[C@H]1CCC[C@H](CO)C1)C1CCN(c2nc3cc(Cl)c(C(F)(F)F)cc3o2)CC1", "values": [{"measurement": "concentration", "setting": "[1]", "value": 1600, "unit": "nM"}, {"measurement": "bioavailability", "setting": "[2]", "value": 42, "unit": "%"}, {"measurement": "MRT", "setting": "[3]", "value": 7.22, "unit": "h"}, {"measurement": "Vd", "setting": "[4]", "value": 14, "unit": "L/kg"}]}
{"smiles": "O=C(N[C@H]1CCC[C@H](CO)C1)C1CCN(c2nc3cc(Cl)c(-c4ccc(Cl)cc4)cc3o2)CC1", "values": [{"measurement": "concentration", "setting": "[1]", "value": 1200, "unit": "nM"}, {"measurement": "bioavailability", "setting": "[2]", "value": 59, "unit": "%"}, {"measurement": "MRT", "setting": "[3]", "value": 4.42, "unit": "h"}, {"measurement": "Vd", "setting": "[4]", "value": 3, "unit": "L/kg"}]}
{"smiles": "O=C(N[C@H]1CCC[C@H](CO)C1)C1CCN(c2nc3cc(Cl)ccc3o2)CC1", "values": [{"measurement": "bioavailability", "setting": "[2]", "value": 66, "unit": "%"}, {"measurement": "MRT", "setting": "[3]", "value": 0.7, "unit": "h"}, {"measurement": "Vd", "setting": "[4]", "value": 0.72, "unit": "L/kg"}]}
{"smiles": "CCOc1ccc(-c2cc3oc(N4CCC(C(=O)N[C@H]5CCC[C@H](CO)C5)CC4)nc3cc2Cl)cc1", "values": [{"measurement": "bioavailability", "setting": "[2]", "value": 17, "unit": "%"}, {"measurement": "MRT", "setting": "[3]", "value": 6.26, "unit": "h"}, {"measurement": "Vd", "setting": "[4]", "value": 2.4, "unit": "L/kg"}]}
{"smiles": "O=C(N[C@H]1CCC[C@H](CO)C1)C1CCN(c2nc3cc(Cl)c(-c4ccc(OC(F)(F)F)cc4)cc3o2)CC1", "values": [{"measurement": "concentration", "setting": "[1]", "value": 510, "unit": "nM"}, {"measurement": "bioavailability", "setting": "[2]", "value": 86, "unit": "%"}, {"measurement": "MRT", "setting": "[3]", "value": 7.78, "unit": "h"}, {"measurement": "Vd", "setting": "[4]", "value": 6.4, "unit": "L/kg"}]}
{"smiles": "CCc1cc2oc(N3CCC(C(=O)N[C@H]4CCC[C@H](CO)C4)CC3)nc2cc1Cl", "values": [{"measurement": "MRT", "setting": "[3]", "value": 0.44, "unit": "h"}, {"measurement": "Vd", "setting": "[4]", "value": 2.1, "unit": "L/kg"}]}
{"smiles": "O=C(N[C@H]1CCC[C@H](CO)C1)C1CCN(c2nc3cc(Cl)c(C(F)F)cc3o2)CC1", "values": [{"measurement": "MRT", "setting": "[3]", "value": 0.39, "unit": "h"}, {"measurement": "Vd", "setting": "[4]", "value": 1.4, "unit": "L/kg"}]}
{"smiles": "COc1ccc2cc([C@H](C)C(=O)O)ccc2c1", "note": "[NAPROXEN]", "values": [{"measurement": "concentration", "setting": "[1]", "value": 154000, "unit": "nM"}]}
